Results taken from patent publication US11999676B2, “Vesicular monoamine transporter-2 ligands and their use in the treatment of psychostimulant abuse” (priority 2016, dated 2024).

Assays:
VMAT2 = VMAT2 (Rattus norvegicus (Rat), UniProt Q01827); assay: [3H]Dopamine ([3H]DA) uptake assay, vesicular preparation; format: biochemical; details: [3H]DA uptake, rat; read-out: VMAT2 (rat) Inhibition: Mean Ki ± Standard Deviation
[1] = Microsomal stability assay, human liver microsomes; details: for CLint scaled at 0.08 µM / half-life at 0.08 µM: both, human, pooled liver microsomes; for CLint scaled at 0.08 µM: pH 7.4, Microsomal stability assays: Clearance; for half-life at 0.08 µM: pH 7.4, Microsomal stability assays: Half-life
Description: (§1) Each plate holds triplicate samples of two controls (0.4 mM) and up to 14 compounds (0.08 mM) in rat and human liver microsomes. Aliquots of each well of the plate (175 μl of each well) were transferred from the master plate into 5 assay plates. For 0-hr time point, pre-cooled (4° C.) internal standard (437.5 μL, 2 μM caffeine in methanol) was added to the first plate before the reaction starts. NADPH regenerating system solution A (6.05 ml, Fisher Scientific, #NC9255727) was combined with NADPH regenerating system solution B (1.21 ml, Fisher Scientific, #NC9016235) in potassium phosphate buffer (15.8 ml, 0.1 M, pH 7.4, 37° C.). The resulting NADPH solution (43.8 μl) was added to each well of all the 96-well assay plates and mixed with pipette briefly making the final protein and compound concentrations respectively: 0.5 mg/ml, 0.08 μM (0.4 μM for controls). Plates were sealed, and all plates except the 0-hr plate were incubated at 37° C., shaken at a speed of 60 rpm. A single assay plate was tested at each time point: 0.5 hr, 1 hr, 2 hr, and 4 hr. At each time point, 437.5 μL of pre-cooled internal standard was added each well of the plate to quench the reaction. […] 120 μl supernatant was transferred to a 96-well plate, centrifuged again and analyzed by UPLC-MS (Waters Inc., Milford, MA). The compounds and internal standard were detected by selected ion recording (SIR).
(§2) The amount of material was measured as a ratio of peak area to the internal standard and graphed. Using the slope from the initial linear portion of this curve, the degradation rate constant is calculated using equation [1].

hERG channel = hERG channel (Homo sapiens (Human), UniProt Q12809); assay: [3H]Dofetilide binding assay, HEK-293 cell membrane preparation; details: [3H]dofetilide, HEK-293 cell membranes; read-out: hERG Binding: Mean Ki ± Standard Deviation
Description: [^3H]Dofetilide binding assays were conducted using commercially available HEK-293 cell membranes which stably express the hERG channel. Membranes were suspended in assay buffer (50 mM Tris, 10 mM KCl, 1 mM MgCl2, pH 7.4) prior to the experiment. […] Aliquots of the HEK-293 cell membrane suspension which contained 5 μg membrane protein were added to tubes containing assay buffer, 5 nM [^3H]dofetilide and a range of concentrations of analog (10 nM-100 μM). Nonspecific binding was determined in the presence of amitriptyline (1 mM). Samples were incubated for 1 hr. at 24° C., followed by rapid filtration. […] The affinity for the [^3H]dofetilide binding site on the hERG channel expressed in the HEK-293 cellular membrane was determined from the analog concentration response curves.

[2] = Microsomal stability assay, rat liver microsomes; details: for CLint scaled at 0.08 µM / half-life at 0.08 µM: female, Sprague-Dawley, rat, liver microsomes; for CLint scaled at 0.08 µM: pH 7.4, Microsomal stability assays: Clearance; for half-life at 0.08 µM: pH 7.4, Microsomal stability assays: Half-life
Description: as §1, §2

Chain of hERG channel (Q12809 whole entry): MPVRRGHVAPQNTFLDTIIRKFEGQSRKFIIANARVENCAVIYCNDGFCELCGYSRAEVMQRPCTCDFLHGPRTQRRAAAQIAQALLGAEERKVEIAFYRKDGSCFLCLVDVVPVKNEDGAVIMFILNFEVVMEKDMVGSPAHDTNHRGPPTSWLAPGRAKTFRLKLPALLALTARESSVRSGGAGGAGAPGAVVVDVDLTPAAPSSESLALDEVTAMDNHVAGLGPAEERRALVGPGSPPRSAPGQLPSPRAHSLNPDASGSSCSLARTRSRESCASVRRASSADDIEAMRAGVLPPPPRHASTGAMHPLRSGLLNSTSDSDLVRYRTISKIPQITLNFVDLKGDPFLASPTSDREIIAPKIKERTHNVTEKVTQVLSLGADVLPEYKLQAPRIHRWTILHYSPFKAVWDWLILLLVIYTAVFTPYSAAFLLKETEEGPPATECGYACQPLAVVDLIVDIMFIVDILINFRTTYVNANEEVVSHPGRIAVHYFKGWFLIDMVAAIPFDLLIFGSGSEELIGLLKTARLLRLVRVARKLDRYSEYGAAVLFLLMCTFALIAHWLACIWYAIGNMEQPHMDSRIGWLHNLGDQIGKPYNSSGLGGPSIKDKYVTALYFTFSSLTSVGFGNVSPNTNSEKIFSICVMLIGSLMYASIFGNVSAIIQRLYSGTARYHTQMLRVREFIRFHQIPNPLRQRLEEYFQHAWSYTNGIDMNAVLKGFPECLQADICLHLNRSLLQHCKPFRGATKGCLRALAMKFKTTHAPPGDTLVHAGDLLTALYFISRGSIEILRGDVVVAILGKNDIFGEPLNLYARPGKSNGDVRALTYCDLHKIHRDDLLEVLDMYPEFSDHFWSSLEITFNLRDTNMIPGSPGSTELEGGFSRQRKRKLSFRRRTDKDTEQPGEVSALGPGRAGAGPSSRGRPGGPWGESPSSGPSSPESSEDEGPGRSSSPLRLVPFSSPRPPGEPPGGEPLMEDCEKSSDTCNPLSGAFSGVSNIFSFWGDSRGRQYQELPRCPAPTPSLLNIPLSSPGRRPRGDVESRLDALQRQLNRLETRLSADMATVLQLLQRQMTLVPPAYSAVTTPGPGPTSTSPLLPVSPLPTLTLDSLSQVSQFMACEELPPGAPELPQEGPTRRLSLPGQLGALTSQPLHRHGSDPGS

Compound | Ki (VMAT2) [nM] | CLint scaled at 0.08 µM [1] [mL/min/kg] | half-life at 0.08 µM [1] [min] | Ki (hERG channel) [nM] | further results
CC(Cc1ccc(F)cc1)NCCCn1ccnc1 (stereo not drawn) [Compound 134] | 517 ± 112 | < 5.2 | > 240 | – | –
CC(Cc1ccc(NC=O)cc1)N(C=O)CCCc1ccc(F)cc1 (stereo not drawn) [Compound 74] | 8.82 ± 2.05 | – | – | 831 ± 187 | –
FCC(Cc1ccc(Br)cc1)NCCCc1ccc(F)cc1 (stereo not drawn) [Compound 85] | 35.7 ± 7.32 | – | – | 1130 ± 711 | Microsomal stability assays: Half-life [2]: 6 min; CLint scaled at 0.08 µM [2]: 335 mL/min/kg
CCOC(=O)c1ccc(CCCNC(C)Cc2ccc(F)cc2)cc1 (stereo not drawn) [Compound 159] | – | 216 | – | – | Microsomal stability assays: Half-life [1]: 6 min
CC(Cc1ccc(F)cc1)NCCCc1ccc(N)cc1 (stereo not drawn) [Compound 95] | – | 12.9 | 96 | – | –
CC(Cc1ccncc1)NCCCc1ccc(O)cc1 (stereo not drawn) [Compound 179] | – | < 5.2 | > 240 | – | –
FCC(Cc1ccc(F)cc1)NCCCc1ccccc1 (stereo not drawn) [Compound 100] | 51.2 ± 12 | – | – | 7390 ± 1360 | –
CC(Cc1ccc([N+](=O)[O-])cc1)NCCCc1ccc(Cl)cc1 (stereo not drawn) [Compound 125] | 8.58 ± 3.71 | – | – | 82 ± 12.7 | –
CC(Cc1ccc(Br)cc1)NCCCc1ccncc1 (stereo not drawn) [Compound 174] | 52.1 ± 35.9 | – | – | 880 ± 251 | CLint scaled at 0.08 µM [2]: 126 mL/min/kg; half-life at 0.08 µM [2]: 24 min
CC(Cc1ccc(Br)cc1)NCCCc1ccc(I)cc1 (stereo not drawn) [Compound 181] | – | < 5.2 | > 240 | – | –
CC(Cc1ccc(F)cc1)NCCCc1ccc2[nH]ccc2c1 (stereo not drawn) [Compound 55] | 27.4 ± 8.93 | – | – | 1550 ± 630 | CLint scaled at 0.08 µM [2]: > 400 mL/min/kg; half-life at 0.08 µM [2]: < 6 min
CC(Cc1ccccc1)NCCCc1ccc([N+](=O)[O-])cc1 (stereo not drawn) [Compound 222] | 4.97 ± 3.08 | – | – | 96.1 ± 28.3 | CLint scaled at 0.08 µM [2]: > 400 mL/min/kg; half-life at 0.08 µM [2]: < 6 min
CC(Cc1ccc(F)cc1)NCCCc1c[nH]c2ccccc12 (stereo not drawn) [Compound 92] | – | 112 | 12 | – | –
CC(Cc1ccccc1)NCCCc1ccc(-c2cccnc2)cc1 (stereo not drawn) [Compound 211] | – | > 400 | < 6 | – | –
COc1ccc(CCC(C)NC(C)Cc2ccccc2)cc1 (stereo not drawn) [Compound 198] | 152 ± 25.6 | – | – | – | Microsomal stability assays: Half-life [2]: 6 min; CLint scaled at 0.08 µM [2]: 414 mL/min/kg
FCC(Cc1ccc(F)cc1)NCCCc1ccc(Cl)cc1 (stereo not drawn) [Compound 151] | – | 22.6 | 54 | – | –
CC(Cc1ccc(F)cc1)NCCCc1ccc(I)cc1 (stereo not drawn) [Compound 182] | 52.7 ± 6.35 | – | – | 512 ± 126 | Microsomal stability assays: Half-life [2]: 6 min; CLint scaled at 0.08 µM [2]: 375 mL/min/kg
CC(Cc1ccc(Cl)cc1)NCCCc1ccc(N)cc1 (stereo not drawn) [Compound 63] | – | 11.6 | 108 | – | –
CC(Cc1ccccc1)NCCCc1ccc(-c2cccnc2)cc1 (stereo not drawn) [Compound 210] | 55.4 ± 7.94 | – | – | 3120 ± 251 | Microsomal stability assays: Half-life [2]: 6 min; CLint scaled at 0.08 µM [2]: 392 mL/min/kg
CCC(Cc1ccccc1)NCCCc1ccc(O)cc1 (stereo not drawn) [Compound 208] | – | > 400 | < 6 | – | –
CC(Cc1ccc(C(F)(F)F)cc1)NCCCc1ccncc1 (stereo not drawn) [Compound 164] | 53.3 ± 6.5 | – | – | 1890 ± 639 | CLint scaled at 0.08 µM [2]: 83.3 mL/min/kg; half-life at 0.08 µM [2]: 36 min

Compound | Ki (VMAT2) [nM] | CLint scaled at 0.08 µM [1] [mL/min/kg] | half-life at 0.08 µM [1] [min] | Ki (hERG channel) [nM] | further results
CC(Cc1ccc(NC=O)cc1)NCCCc1ccc(F)cc1 (stereo not drawn) [Compound 87] | 12.7 ± 2.85 | – | – | 738 ± 244 | CLint scaled at 0.08 µM [2]: 13.3 mL/min/kg; half-life at 0.08 µM [2]: 210 min
FCC(Cc1ccccc1)NCCCc1ccc(F)cc1 (stereo not drawn) [Compound 102] | – | 33.9 | 36 | – | –
FCC(Cc1ccc(Br)cc1)NCCCc1ccc(F)cc1 (stereo not drawn) [Compound 86] | – | 18.1 | 66 | – | –
CC(C)C(Cc1ccc(F)cc1)NCCCc1ccc(Br)cc1 (stereo not drawn) [Compound 140] | 132 ± 29.5 | 14.4 | 84 | – | –
CC(Cc1ccccc1)NCCCc1ccc(O)cc1 (stereo not drawn) [Compound 223] | 5.01 ± 1.72 | – | – | 2750 ± 1080 | –
COc1ccc(CC(C)NCCCc2ccc(N)cc2)cc1 (stereo not drawn) [Compound 57] | 68.9 ± 13.3 | – | – | 4250 ± 220 | –
FCC(Cc1ccc(F)cc1)NCCCc1ccc(F)cc1 (stereo not drawn) [Compound 153] | – | 20.5 | 60 | – | –
OCC(Cc1ccc(F)cc1)NCCCc1ccc(F)cc1 (stereo not drawn) [Compound 147] | 30.1 ± 14.2 | – | – | 1150 ± 417 | –
CC(Cc1ccccc1)NCCCc1ccc(C(F)(F)F)cc1 (stereo not drawn) [Compound 195] | – | < 5.2 | > 240 | – | –
CC(Cc1ccc(-c2cncnc2)cc1)NCCCc1ccc(Cl)cc1 (stereo not drawn) [Compound 171] | – | 75.2 | 18 | – | –
CC(Cc1ccc(F)cc1)NCCCc1ccc(S(C)(=O)=O)cc1 (stereo not drawn) [Compound 138] | 146 ± 41.9 | < 5.2 | > 240 | – | –
CC(Cc1ccc(F)cc1)NCCCc1ccc2[nH]ccc2c1 (stereo not drawn) [Compound 56] | – | 106 | 12 | – | –
CC(Cc1ccc(F)c(F)c1)NCCCc1ccncc1 (stereo not drawn) [Compound 97] | – | 11.9 | 102 | – | –
CC(Cc1ccc(F)cc1)NCCCn1cccn1 (stereo not drawn) [Compound 132] | 709 ± 172 | – | – | – | CLint scaled at 0.08 µM [2]: 180 mL/min/kg; half-life at 0.08 µM [2]: 18 min
CC(Cc1ccc(Br)cc1)NCCCc1ccncc1 (stereo not drawn) [Compound 175] | – | < 5.2 | > 240 | – | –
COc1ccc(CCCNC(C)Cc2ccncc2)cc1 (stereo not drawn) [Compound 172] | 186 ± 127 | 42.9 | 30 | – | –
CC(Cc1ccc(F)cc1)NCCCc1ccc(N(C)C)cc1 (stereo not drawn) [Compound 156] | 118 ± 25.8 | 182 | – | – | Microsomal stability assays: Half-life [1]: 6 min
CC(Cc1ccc(F)cc1)NCCCc1ccncc1 (stereo not drawn) [Compound 177] | – | < 5.2 | > 240 | – | –
CC(Cc1ccc(F)cc1)NCCCc1ccc(I)cc1 (stereo not drawn) [Compound 183] | – | < 5.2 | > 240 | – | –
Nc1ccc(CCCNC(CF)Cc2ccc(F)cc2)cc1 (stereo not drawn) [Compound 107] | 105 ± 0.189 | – | – | – | CLint scaled at 0.08 µM [2]: 82.2 mL/min/kg; half-life at 0.08 µM [2]: 36 min
CC(Cc1ccc(F)c(F)c1)NCCCc1ccc([N+](=O)[O-])cc1 (stereo not drawn) [Compound 59] | 13.1 ± 2.87 | – | – | 55.6 ± 7.7 | –

Compound | Ki (VMAT2) [nM] | CLint scaled at 0.08 µM [1] [mL/min/kg] | half-life at 0.08 µM [1] [min] | Ki (hERG channel) [nM] | further results
CC(Cc1ccc(F)cc1)NCCCc1ccc([N+](=O)[O-])cc1 (stereo not drawn) [Compound 161] | – | < 5.2 | > 240 | – | –
COc1ccc(CC(C)NCCCc2ccc([N+](=O)[O-])cc2)cc1 (stereo not drawn) [Compound 58] | 16.6 ± 3.99 | – | – | 42.3 ± 8.21 | –
CC(Cc1ccc(Cl)cc1)NCCCc1ccc([N+](=O)[O-])cc1 (stereo not drawn) [Compound 64] | 16.4 ± 1.47 | – | – | 28.8 ± 13.7 | –
CC(=O)Nc1ccc(CCCNC(C)Cc2ccc(F)cc2)cc1 (stereo not drawn) [Compound 67] | – | < 10 | > 240 | – | –
CC(Cc1ccc(C(F)(F)F)cc1)NCCCc1ccc(O)cc1 (stereo not drawn) [Compound 209] | 17.1 ± 6.86 | – | – | 252 ± 109 | –
OCC(Cc1ccc(F)cc1)NCCCc1ccncc1 (stereo not drawn) [Compound 128] | – | – | – | – | CLint scaled at 0.08 µM [2]: < 10 mL/min/kg; half-life at 0.08 µM [2]: > 240 min
FCC(Cc1ccccc1)NCCCc1ccccc1 (stereo not drawn) [Compound 99] | – | 119 | 12 | – | –
CC(Cc1ccc(-c2cncnc2)cc1)NCCCc1ccc(F)cc1 (stereo not drawn) [Compound 197] | – | 40.4 | 30 | – | –
Nc1ccc(CCCNC(CF)Cc2ccc(F)cc2)cc1 (stereo not drawn) [Compound 108] | – | 9.6 | 132 | – | –
CC(Cc1ccc(C(F)(F)F)cc1)NCCCc1ccc(N)cc1 (stereo not drawn) [Compound 54] | 61.8 ± 1.69 | – | – | 908 ± 102 | –
CC(Cc1ccc(-c2cccnc2)cc1)NCCCc1ccc(F)cc1 (stereo not drawn) [Compound 193] | – | 144 | – | – | Microsomal stability assays: Half-life [1]: 6 min
COc1ccc(CCC(C)NC(C)Cc2ccccc2)cc1 (stereo not drawn) [Compound 199] | – | > 400 | < 6 | – | –
CC(Cc1ccc([N+](=O)[O-])cc1)NCCCc1ccncc1 (stereo not drawn) [Compound 113] | 157 ± 72.5 | 6.3 | 198 | – | –
CC(Cc1ccncc1)NCCCc1ccc(F)cc1 (stereo not drawn) [Compound 187] | – | – | – | – | CLint scaled at 0.08 µM [2]: 150 mL/min/kg; half-life at 0.08 µM [2]: 18 min
CC(Cc1ccc(F)cc1)NCCCn1cccn1 (stereo not drawn) [Compound 133] | – | < 5.2 | > 240 | – | –
CC(Cc1ccc(F)c(F)c1)NCCCc1ccc(N)cc1 (stereo not drawn) [Compound 61] | – | 9.6 | 132 | – | –
CC(Cc1ccc(Br)cc1)NCCCc1ccc(F)cc1 (stereo not drawn) [Compound 201] | – | < 5.2 | > 240 | – | –
CC(Cc1ccc(F)cc1)NCCCc1ccc(-c2ccnn2C)cc1 (stereo not drawn) [Compound 167] | – | – | – | – | CLint scaled at 0.08 µM [2]: 111 mL/min/kg; half-life at 0.08 µM [2]: 24 min
CC(Cc1ccc(Br)cc1)NCCCc1ccc(Cl)cc1 (stereo not drawn) [Compound 185] | – | < 5.2 | > 240 | – | –
CC(Cc1ccccc1)NCCCc1ccc(-c2cncnc2)cc1 (stereo not drawn) [Compound 202] | 119 ± 31.8 | 155 | – | – | Microsomal stability assays: Half-life [1]: 6 min
